# Laboratory results taken from patent US10189822B2, “Heterocyclic modulators of lipid synthesis” (3-V Biosciences, Inc., priority 2015, dated 2019).
# Tests used:
# [1] = test system: HCV GT1b replicon cell line; assay: Two-compound combination study in HCV GT1b replicon, MacSynergy II; assay type: cell-based
# Procedure: The DMSO stocks of the compounds used in the single compound testing were also used in this analysis. Combination dilution matrixes were generated by POD-810 in 96-well assay microplates. The POD-810 system was used to generate 7-point, 2-fold serial dilutions in a matrix format.
# The plates were incubated for 1 hour, and cell viability was measured on an Envision reader for cytotoxicity calculation. The liquid was then removed from the plates, after which 50 μL PBS and 50 μL firefly luciferase substrate solution were added to each well, after a 2-minute incubation period, chemiluminescence (for HCV replication calculation) was measured. The data were analyzed using MacSynergy™ II.
# db/db mice = conditions: mouse, in vivo; cited from earlier work
# [2] = test system: Db/+ mice fed a high fructose diet; conditions: treated for 28 days; cited from earlier work
# HCV replicon GT1b cells = assay: Cytotoxicity in HCV replicon GT1b cells, Cell Titer Flo (Example 5); assay type: cell-based; conditions: 72 hours, IFN-α
# [3] = test system: HCV GT1b replicon cell line; assay type: cell-based; conditions: IFN-α
# [4] = test system: HCV GT1b replicon cell line; conditions: expected value, Table 10; IFN-α; cited from earlier work
compound,measurement,setting,value
Cc1ccc(C(=O)N2CCC(F)(c3ccc(C#N)cc3)CC2)cc1NC(=O)NC1CCCOC1 (stereo not drawn) [(V-K)],Combination antiviral effect (in words),"[1]; in combination with IFN-α, RBV, Compounds B, C, D, E",additive antiviral activity
CC12C[C@@]34C=CC(=O)[C@@](C)(CCC(=O)Nc5c(O)ccc(C(=O)O)c5O)C3[C@H](CC1C4)O2 (stereo partly drawn) [platensimycin],Ambient glucose levels,db/db mice,reduced
same,Insulin sensitivity,[2],improved insulin sensitivity
same,Liver triglyceride levels,[2],reduced liver triglyceride levels
IFN-α,GT1b CC50,HCV replicon GT1b cells,>1000 IU/mL
same,GT1b EC50 in dose ranging assay,[3]; Table 13,1.34 IU/mL
same,GT1b EC50,"[3]; single compound, 72 hours",1.34 IU/mL
same,GT1b EC50 of single dose in drug combination,"[1]; individual compound in the combination matrix, IFN-α",3.43 IU/mL
same,GT1b Expected EC50,[4],1 IU/mL
